Publication PMC9729826, “Hypoaminoacidemia underpins glucagon-mediated energy expenditure and weight loss” (Cell Reports Medicine, 2022)
Starred links: 1 amine or outer side, 2 acyl side, 3 side chain; linkers in the order of their positions; H or OH if unused. Non-standard residues stand in square brackets, D forms with d. Residues, ends and D or L forms follow the SMILES beside them. Groups on a side chain read outwards from the residue. *: point of attachment. C18 diacid = O=C(O)CCCCCCCCCCCCCCCCC(=O)*; γGlu = O=C(O)[C@H](CCC(=O)[*:2])N[*:1]; Aib = CC(C)(N)C(=O)O

Assays:
Type in all cases: in vivo, mouse
lean C57BL/6 mice [1] = test: 18-day dose-finding study of food intake in lean mice
Protocol: C57BL/6 mice matched for weight and age (14-week-old, N = 24) were administered via subcutaneous injection at 9 am daily for 18 days, vehicle control or G108 diluted in sterile HPLC water. Ascending doses of either 5 nmol/kg, 10 nmol/kg or 20 nmol/kg G018 were administered. All mice had ad libitum access to RM1 diet (Special Diet Services, UK) and water. Food intake and body weights were recorded daily.
(§1) Food intake was measured daily using a dedicated weighing scale and topped up accordingly. Body weight was recorded at 9 am daily or every 48 h using the same weighing scale. Body composition was measured using an EchoMRI analyser at various timepoints during chronic studies. Body composition measurements were taken on the same time of day to reduce intra-animal variability. Animals were placed in a transparent cylindrical Perspex tube and both ends secured with Perspex clips. The tubes containing the animal was then carefully placed into the MRI machine (EchoMRI −100H analyser, EchoMRI). Each scan lasted approximately 90 s where lean mass and fat mass were recorded in grams. Following the scan, the mice were removed from the Perspex tube and returned to their respective cages.

[2] = system: diet-induced obese (DIO) C57BL/6 mice; test: Essential and non-essential amino acid supplementation in G108-treated DIO mice; conditions: 7.5 nmol/kg daily, 14 days, n = 8/group
Text: Lean 10-week-old C57BL/6 mice (N = 48) were provided ad libitum with a 60 kcal% high fat diet (diet D12492, Table S2) for 8 weeks. They were then provided with either a high fat standard protein diet (SP) (D08091803), a high fat standard protein diet supplemented with essential amino acids (SP + EAA) (Formula 2, Table S3), or a high fat standard protein diet supplemented with non-essential amino acids (SP + NEAA) (Formula 3, Table S3), N = 16/group. Mice from each diet group received either 7.5 nmol/kg G108 or vehicle control resulting in the following six treatment groups, N = 8/group: Vehicle/SP, 7.5 nmol/kg G108/SP, Vehicle/SP +EAA, 7.5 nmol/kg G108/SP + EAA, Vehicle/SP + NEAA, 7.5 nmol/kg G108 + NEAA. Food intake and body weight was measured every 48 h. Prior to commencing their respective diets, baseline body composition analysis was (EchoMRI) was carried out in addition to body composition analysis on day 11. Tail venesection was carried out on day 13 of the study 4 h following respective treatments. […]
To measure energy expenditure, DIO mice were placed into a Comprehensive Laboratory Animal Monitoring System (CLAMS, Columbus instruments, Columbus, US). […] Food intake was also measured electronically without the need to remove food. […] Feed efficiency was calculated as mg body weight change per kJ consumed.

lean C57BL/6 mice [3] = test: Chronic low-dose (5 nmol/kg) G108 study in lean mice; conditions: 5 nmol/kg s.c. daily
Protocol: For the low-dose G108 (5 nmol/kg) study, C57BL/6 mice matched for weight and age (14-week-old, N = 14) were single housed and split into two treatment groups (N = 7/group). All mice were subcutaneously administered with the allocated treatment daily at 9 am for 21 days. Mice were administered with vehicle control (HPLC water) or 5 nmol/kg G108 (diluted in sterile HPLC water). All mice had ad libitum access to a standard protein diet containing 20 kcal% protein (diet D11112201) (Table S2). Food intake and body weight were measured daily prior to treatment each day. EchoMRI analysis was carried out at baseline and days 7, 14 and 21. Tail venesection was carried out on day 7 of study, pre- and 4 h post treatment dose. Blood samples were immediately transferred on ice, centrifuged at 2800 × g for 10 min prior to plasma total amino acid analysis. Forelimb grip strength testing was performed at baseline, day 14 and day 21. On day 21, following a 4 h fast, mice were culled, and the following muscle groups dissected and weighed: quadriceps, gastrocnemius, soleus, tibialis anterior, extensor digitorum longus.
as §1
A grip strength meter (Bioseb, France) was used to measure grip strength. […] The maximum force, measured in g was recorded. Four consecutive measurements were made with a 1 min rest interval. An average of measurements was taken for each timepoint prior to subsequent analysis.
Plasma total amino acids were measured using fluorometric-based ELISA kits as described (MAK002, Sigma-Aldrich, Ab65347, Abcam). Plasma FGF21 was measured using a fluorescent based ELISA kit (ab229382, Abcam). Plasma triglyceride, cholesterol and leptin were measured using ELISA kits (ab65336, ab65390, ab199082, Abcam). Individual amino acids were measured using Gas Chromatography/Mass Spectrometry (WellChild laboratory, Evelina Children’s Hospital, St Thomas’s Hospital, London).

lean C57BL/6 mice [4] = test: Blood glucose after a single dose in lean mice; conditions: 10 nmol/kg single intraperitoneal injection, up to 2 h, n = 6/group
Protocol: Twelve weight-matched 12-week-old lean C57BL/6 mice were fasted for 2 h prior to a single intraperitoneal injection of 10 nmol/kg dose of G108 diluted in sterile HPLC water (pH > 7), or vehicle control alone. Tail venesection was performed at baseline, 15, 30, 60 and 120 min and blood glucose measured using a handheld GlucoRx meter. For hepatic carbohydrate and amino acid metabolism gene expression analysis, weight-matched 12-week-old lean C57BL/6 mice were subcutaneously administered with 20 nmol/kg G108 diluted in sterile HPLC water (pH > 7), or vehicle control via subcutaneous injection at 9 am (N = 8). All animals had ad libitum access to RM1 diet and water. Liver tissue was dissected at 24 h and stored at −80°C prior to hepatic gene expression analysis.

CC[C@H](C)[C@H](NC(=O)[C@H](Cc1ccccc1)NC(=O)[C@H](CCC(=O)O)NC(=O)[C@H](CCC(N)=O)NC(=O)[C@H](C)NC(=O)[C@H](CCCNC(=N)N)NC(=O)[C@H](CCCCN)NC(=O)[C@H](C)NC(=O)[C@H](CC(=O)O)NC(=O)[C@H](CC(C)C)NC(=O)[C@H](Cc1ccc(O)cc1)NC(=O)[C@H](CCCNC(=N)N)NC(=O)[C@H](CO)NC(=O)[C@H](Cc1ccc(O)cc1)NC(=O)[C@H](CC(=O)O)NC(=O)[C@H](CO)NC(=O)[C@@H](NC(=O)[C@H](Cc1ccccc1)NC(=O)[C@@H](NC(=O)CNC(=O)[C@H](Cc1c[nH]cn1)NC(=O)C(C)(C)NC(=O)[C@@H](N)Cc1c[nH]cn1)[C@@H](C)O)[C@@H](C)O)C(=O)N[C@@H](CCC(=O)O)C(=O)N[C@@H](Cc1c[nH]c2ccccc12)C(=O)N[C@@H](CC(C)C)C(=O)N[C@@H](CC(C)C)C(=O)N[C@@H](CCC(N)=O)C(=O)N[C@@H](CO)C(=O)N[C@@H](Cc1c[nH]cn1)C(=O)N[C@@H](Cc1c[nH]cn1)C(=O)N[C@@H](CCC(N)=O)C(=O)N[C@@H](Cc1c[nH]cn1)C(=O)N[C@@H](Cc1c[nH]cn1)C(=O)N1CCC[C@H]1C(=O)N[C@@H](CO)C(=O)N1CCC[C@H]1C(=O)N1CCC[C@H]1C(=O)N1CCC[C@H]1C(=O)N[C@@H](CCCCNC(=O)[C@H](CC(N)=O)NC(=O)CC[C@H](NC(=O)CCCCCCCCCCCCCCCCC(=O)O)C(=O)O)C(N)=O [Peptide G108] (H-H[Aib]HGTFTSDYSRYLDAKRAQEFIEWLLQSHHQHHPSPPPK([Asn-γGlu-C18 diacid])-NH2; N-terminus and C-terminus assumed)
food intake (lean C57BL/6 mice [1]; 5 nmol/kg s.c. daily): no effect on food intake
food intake (lean C57BL/6 mice [1]; 10 nmol/kg s.c. daily, 18 days, n = 6/group): sustained reduction in food intake
food intake (lean C57BL/6 mice [1]; 20 nmol/kg s.c. daily, 18 days, n = 6/group): sustained reduction in food intake
effects on weight loss and feed efficiency on SP diet supplemented with either EAAs or NEAAs [2]: not suppressed
body composition (lean mass, EchoMRI) (lean C57BL/6 mice [3]; 21 days, n = 7/group): reduced lean mass
body weight gain compared with vehicle (lean C57BL/6 mice [3]; 21 days, n = 7/group): prevented weight gain
plasma total amino acids (lean C57BL/6 mice [3]; day 7, n = 7/group): sustained reduction in plasma amino acids
weight of the quadriceps and gastrocnemius muscles (lean C57BL/6 mice [3]; day 21, n = 7/group): reduced
forelimb grip strength (lean C57BL/6 mice [3]; days 14 and 21, n = 7/group): reduced
blood glucose after a single dose (lean C57BL/6 mice [4]): acute increase in blood glucose
